Test results published in paper PMC9411606, “Control cell migration by engineering integrin ligand assembly” (Nature Communications, 2022).
“Also recorded” adds a separate entry of the source.

Columns and labels:
Type in all cases: cell-based, human
HuH-7 cells [1] = assay: Cell adhesion assay, HuH-7; conditions: FFFIKLLI pre-coated dishes
Procedure: The 96-well microplates wells were coated with peptide assemblies (the concentration of FFFIKLLI was kept at 100 μM constantly) for 12 hr at 37 °C before blocked with the Blocking Buffer (2% BSA, 1 mM CaCI2 and 1 mM MnCI2 in PBS) for 1 hr at 37 °C. Cells were collected from culture dishes and suspended in the Blocking Buffer containing anti-laminin-5 (P3H9-2, MAB1947, Chemicon, 5 μg/ml), anti-fibronectin (IST-9, ab6328, Abcam, 20 μg/ml) or IgG isotype control (20 μg/ml, Abcam) before immediately seeded to the coated well (20,000 cells/well) and allowed to incubate at 37 °C for 1 h. The wells were washed for three times with the Blocking Buffer and the phase-contrast images were captured by IncucyteS3 (Essen Bioscience) with a 10× objective.

[2] = test system: RhoA in HuH-7 cells (DORA-RhoA); assay: RhoA activity by FRET
From the text: The mGFP-paxillin expression vector was a gift from A. Kusumi (Okinawa Institute of Science and Technology, Japan). pGFP-FAK and pEGFP-vinculin were gifts from Kenneth Yamada (RRID: Addgene_50513 and Addgene¬_50515)[39], EGFP-talin, mVenus-Integrin-Beta1 and mRuby-Lifeact-7 was a gift from Michael Davidson (RRID: Addgene_54560). pEGFPC1/Gg Vinculin 1-258 (akaVD1) was a gift from S. Craig (RRID: Addgene_46270)[40]. The Rac1 FRET Sensor, pCAGGS-RaichuEV-Rac1was generously provided by K. Aoki (National Institute for Basic Biology, Japan)[41] and the RhoA FRET sensor, DORA-RhoA was generously provided by Yi I. Wu (University of Connecticut Health Center, USA)[42]. The expression vectors for Rac1/Tiam1 activation system (Lyn11-linker-FRB, YFP-FKBP, YFP-FKBP-linker-Tiam1, and pTriEx-PA-Rac1) was generously provided by T. Inoue (Johns Hopkins University, USA)[43].

HuH-7 cells [3] = assay: Cell spreading evaluation (phalloidin staining)
Procedure: All microscope imaging was performed with a Zeiss LSM 780 or Olympus SD-OSR. To assess the F-actin organization after certain treatments, cells were seeded on a glass-bottom culture dish (D11130H, Matsunami). After culture with the peptides, cells were fixed with 4% paraformaldehyde phosphate buffer solution (PFA, 30525-89-4, Wako) for 10 min at room temperature, washed, and permeabilized with 0.1% Triton X-100 (Sigma) in PBS for 15 min. Cells were washed with DPBS twice and incubated with ActinRed (Rhodamine-conjugated phalloidin, R37112, Invitrogen) or ActinGreen (Alexa-Fluor-488-conjugated phalloidin, R37110, Invitrogen) for 15 min at room temperature. Cells were washed with DPBS before being imaged. Morphological characteristics, including cell spreading area and perimeter area ratio, were quantified by Image J.

[4] = test system: FAK Y397 phosphorylation in HuH-7 cells; assay: Western blotting FAK / pY397 FAK
HuH-7 cells [5] = assay: Random cell migration assay
Procedure: HuH-7 cells were labeled with fluorescent protein fusion constructs or Hoechst 33342. After being treated with or without the peptides for 12 hr, the cells were tracked with a 20x/0.8 Plan-Apochromat objective for 6 h. The centroids of labeled cells were tracked using the TrackMate plugin (https://imagej.net/plugins/trackmate/) in ImageJ[44]. A custom MATLAB script generated by a person was applied to reconstruct the cell migration trajectory. […]
The directionality of the cell movement was described by the persistence index and the persistent time, the persistence index was defined by the ratio of the vectorial distance (the distance between the origin and the endpoint of the movement) and the length of the total path and the persistent time is defined as the time it takes for the cell to change the initial direction by 90°[45].

[6] = test system: integrin knockdown HuH-7 cells; assay: Wound healing assay, integrin knockdown HuH-7; conditions: 48 hr wound healing, 100 µM, n = 6
Procedure: Healthy cells were seeded in 96-well Image Lock plates (Essen Bioscience, UK). Each well contained 2 ×10^4 to 5 × 10^4 cells in 100 μL of complete cell culture medium. Cell monolayer with approximately 90% confluence formed after 12 hr and cells were next starved in serum-free culture medium for 12 hrs. Homogenous scratch wounds with a width of about 700 μm were made by an Essen BioScienceWound Maker. The detached cells were washed with Dulbecco’s Buffered Saline (DPBS, Gibco) 3 times. Cells were incubated with 100 μL of culture medium containing 0.5 % FBS and desired concentration of each peptide. Wound closure was monitored by an IncucyteS3 (Essen Bioscience) with a 10x objective. Images for each well were acquired every 2 hr to 8 hr for 2 days or until the wounds were closed completely. The wound healing rate was quantified by Incucyte Scratch Wound Analysis Module (Essen Bioscience). The experiments were repeated at least 3 times, and the results were presented as mean ± standard deviation of at least 3 independent experiments.
Integrin β1 shRNA plasmid (#sc-29375-SH), Integrin α3 shRNA plasmid (#sc-35684-SH), Integrin α6 shRNA plasmid (#sc-43129-SH), and control shRNA plasmid-A (#sc-108060) were purchased from Santa Cruz Biotechnology for knockdown of the target integrins. The knockdown efficiency was evaluated by western blotting.

[7] = vin258-transfected HuH-7, 12 hr, n = 51 cells, mean
[8] = relative to Ctrl = 1, 12 hr, representative blot

## FFFIKLLI [assembling ligand: FFF coupled to the N-terminus of IKLLI; self-assembles into nanofilaments]
HuH-7 cells [1]; IgG, n = 30
  attached cells: 171.2 Counts / mm2
HuH-7 cells [1]; anti-fibronectin IST-9, n = 30
  attached cells: 162.2 Counts / mm2
HuH-7 cells [1]; anti-laminin-5 P3H9-2, n = 30
  attached cells: 157.4 Counts / mm2
[2]; 12 hr, n = 50 cells, mean
  RhoA activity, FRET/CFP: 1.263
[2]; HuH-7
  RhoA activity: great inhibition; also recorded: suppressed RhoA activity; also recorded: global inhibition
HuH-7 cells [3]; Tiam1/Rac1-preactivated HuH-7, 12 hr, n = 64 cells, p = 0.5635 vs Ctrl
  Perimeter / Area: 0.1130 µm-1
HuH-7 cells [3]; Tiam1/Rac1-preactivated HuH-7, 12 hr, n = 64 cells, p = 0.8317 vs Ctrl
  Spreading area: 4496 µm2
HuH-7 cells [3]; glass, FN or LM-5 coated dish (order not readable), 12 hr, value 2
  Spreading area: 1802 µm2
HuH-7 cells [3]; glass, FN or LM-5 coated dish (order not readable), 12 hr, value 3
  Spreading area: 1763 µm2
HuH-7 cells [3]; [7]
  Perimeter / Area: 0.2881 µm-1
  Spreading area: 2047 µm2
[4]; HuH-7, 12 hr, n = 9
  FAK Y397 phosphorylation: reduction
[4]; [8]
  FAK band: 0.87
  pY397FAK band: 0.34
HuH-7 cells [5]; HuH-7 expressing vin258, 12 h
  cell motility, vin258-expressing cells: suppression effect on cell motility was remained
HuH-7 cells [5]; Tiam1/Rac1-activated HuH-7, n = 230, 232 cells, p = 0.4508 vs Ctrl
  migration speed: 0.3729 µm/min
HuH-7 cells [5]; vin258-transfected HuH-7, mean, n = 169, 176 cells
  migration speed: 0.140 µm/min
[6]
  suppression efficacy after knockdown of α3 or β1 integrin subunit: attenuated the suppression efficacy
  suppression efficacy after knockdown of α6 subunit (attenuated?): did not
